In patent publication US9040527B2, “Pyrimidinediamine kinase inhibitors” (Rigel Pharmaceuticals, Inc., priority 2008, dated 2015):

Key:
PLK1 [1] = target: T1, PLK1 (Homo sapiens, UniProt P53350); assay: In vitro PLK1 ELISA assay (biochemical); set-up: purchased Cell Signalling 7728
Outline: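 Commercial PLK1 phosphorylates neutravidin-captured biotinylated CHK2 peptide for 45 min at room temperature in HEPES pH 7.2 with Mg2+/Mn2+/DTT, compounds at 10 μM to 0.005 μM. Phospho-CHK2(T68) antibody plus HRP secondary gives chemiluminescent read-out used for IC50.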

PLK1 [2] = target: T1, PLK1; assay: Cellular PLK1 assay in K562 cells overexpressing CDC25C; assay type: cell-based; set-up: endogenous in cells; host or cells: K562 (human chronic myelogenous leukemia) overexpressing CDC25C, nocodazole-arrested; conditions: nocodazole arrested, cdc25c p-Ser198 readout
Outline: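 K562 cells overexpressing CDC25C were arrested with 333 nM nocodazole for 18 h at 37 °C, then exposed to compound at 8 points from 10 μM to 0.005 μM in duplicate for 120 min. After fixation and permeabilization, cells were stained for cdc25c pSer198 with a PE secondary and read by flow cytometry, 10,000 cells per well.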

[3] = ELISA, CHK2-derived peptide substrate, read-out: PLK1 IC50 (μM) biochemical assay
[4] = read-out: IC50 in biochemical in vitro PLK1 ELISA assay (less than 10 μM)
[5] = read-out: IC50 in biochemical ELISA assay (less than 0.01 μM)

T1 sequence (P53350 whole entry): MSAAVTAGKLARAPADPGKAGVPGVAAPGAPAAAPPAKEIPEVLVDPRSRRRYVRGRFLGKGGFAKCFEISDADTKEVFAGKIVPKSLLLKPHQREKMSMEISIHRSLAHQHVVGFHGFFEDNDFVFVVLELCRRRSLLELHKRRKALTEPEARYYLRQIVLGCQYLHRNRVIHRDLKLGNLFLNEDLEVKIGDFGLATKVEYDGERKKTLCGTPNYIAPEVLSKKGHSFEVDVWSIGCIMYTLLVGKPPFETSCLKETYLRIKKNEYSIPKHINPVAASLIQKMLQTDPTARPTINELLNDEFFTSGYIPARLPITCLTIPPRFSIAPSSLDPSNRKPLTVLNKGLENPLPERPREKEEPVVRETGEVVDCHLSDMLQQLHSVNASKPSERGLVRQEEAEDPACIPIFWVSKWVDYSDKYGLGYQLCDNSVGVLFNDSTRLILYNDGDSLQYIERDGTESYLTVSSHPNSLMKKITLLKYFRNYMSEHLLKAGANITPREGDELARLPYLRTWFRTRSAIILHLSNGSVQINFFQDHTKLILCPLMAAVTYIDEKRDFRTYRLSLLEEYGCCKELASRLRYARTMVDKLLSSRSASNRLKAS

| SMILES | IC50 (PLK1 [1]; [3]) | IC50 (PLK1 [2]) | IC50 (PLK1 [1]; [4]) | IC50 (PLK1 [1]; [5]) |
| --- | --- | --- | --- | --- |
| CCCN1C(=O)COc2ccc(Nc3nc(Nc4ccc(N5CC6CC5CN6S(C)(=O)=O)c(C)c4)ncc3F)nc21 (stereo not drawn) [compound 31, 6-(5-fluoro-2-(3-methyl-4-(5-(methylsulfonyl)-2,5-diazabicyclo[2.2.1]heptan-2-yl)phenylamino)pyrimidin-4-ylamino)-4-propyl-2H-pyrido[3,2-b][1,4]oxazin-3(4H)-one] | ≥ 10 µM | 0.5 to 5 µM |  |  |
| CCN1C(=O)COc2ccc(Nc3nc(Nc4ccc(N5CCN(C)CC5)nc4)ncc3C)nc21 [compound 101, 4-ethyl-6-(5-methyl-2-(6-(4-methylpiperazin-1-yl)pyridin-3-ylamino)pyrimidin-4-ylamino)-2H-pyrido[3,2-b][1,4]oxazin-3(4H)-one] | < 0.5 µM | 0.5 to 5 µM | < 10 µM |  |
| CN1CC2CC1CN2c1cccc(Nc2ncc(F)c(Nc3ccc4c(n3)NC(=O)CO4)n2)c1 (stereo not drawn) [compound 41, 6-(5-fluoro-2-(3-(5-methyl-2,5-diaza-bicyclo[2.2.1]heptan-2-yl)phenylamino)pyrimidin-4-ylamino)-2H-pyrido[3,2-b][1,4]oxazin-3(4H)-one] | < 0.5 µM | < 0.5 µM | < 10 µM |  |
| COc1cnc(Nc2cccc(N3CCN(C)CC3)c2)nc1Nc1ccc2c(n1)NCCO2 [compound 52, N4-(3,4-dihydro-2H-pyrido[3,2-b][1,4]oxazin-6-yl)-5-methoxy-N2-(3-(4-methylpiperazin-1-yl)phenyl)pyrimidine-2,4-diamine] | < 0.5 µM | 0.5 to 5 µM | < 10 µM |  |
| Cc1cnc(Nc2cccc(N3CCN(C)CC3)c2)nc1Nc1ccc2c(n1)N(CC1CC1)C(=O)CO2 [compound 129, 4-(cyclopropylmethyl)-6-(5-methyl-2-(3-(4-methylpiperazin-1-yl)phenylamino)pyrimidin-4-ylamino)-2H-pyrido[3,2-b][1,4]oxazin-3(4H)-one] | < 0.5 µM | 0.5 to 5 µM | < 10 µM | < 0.01 µM |
| Cc1cc(Nc2ncc(F)c(Nc3ccc4c(n3)N(CC3CCCCC3)C(=O)CO4)n2)ccc1N1CCN(C)CC1 [compound 113, 4-(cyclohexylmethyl)-6-(5-fluoro-2-(3-methyl-4-(4-methylpiperazin-1-yl)phenylamino)pyrimidin-4-ylamino)-2H-pyrido[3,2-b][1,4]oxazin-3(4H)-one] | ≥ 10 µM | ≥ 10 µM |  |  |
| COc1ccc(CN2C(=O)COc3ccc(Nc4nc(Nc5ccc(N6CCN(C)CC6)c(C)c5)ncc4C)nc32)cc1 [compound 126, 4-(4-methoxybenzyl)-6-(5-methyl-2-(3-methyl-4-(4-methylpiperazin-1-yl)phenylamino)pyrimidin-4-ylamino)-2H-pyrido[3,2-b][1,4]oxazin-3(4H)-one] | ≥ 10 µM | 0.5 to 5 µM |  |  |
| CC(C)Oc1ccc(N2CCN(C)CC2)cc1Nc1ncc(F)c(Nc2ccc3c(n2)NC(=O)CO3)n1 [compound 30, 6-(5-fluoro-2-(2-isopropoxy-5-(4-methylpiperazin-1-yl)phenylamino)pyrimidin-4-ylamino)-2H-pyrido[3,2-b][1,4]oxazin-3(4H)-one] | < 0.5 µM | < 0.5 µM | < 10 µM |  |
| CN1CCN(c2cccc(Nc3ncc(F)c(Nc4ccc5c(n4)N(CC4CC4)C(=O)CO5)n3)c2)CC1 [compound 108, 4-(cyclopropylmethyl)-6-(5-fluoro-2-(3-(4-methylpiperazin-1-yl)phenylamino)pyrimidin-4-ylamino)-2H-pyrido[3,2-b][1,4]oxazin-3(4H)-one] | < 0.5 µM | 0.5 to 5 µM | < 10 µM |  |
| CCCN1C(=O)COc2ccc(Nc3nc(Nc4ccc(N5CC6CC5CN6C(C)=O)c(C)c4)ncc3F)nc21 (stereo not drawn) [compound 35, 6-(2-(4-(5-acetyl-2,5-diazabicyclo[2.2.1]heptan-2-yl)-3-methylphenylamino)-5-fluoropyrimidin-4-ylamino)-4-propyl-2H-pyrido[3,2-b][1,4]oxazin-3(4H)-one] | < 0.5 µM | 0.5 to 5 µM | < 10 µM |  |
| CCC(CC)N1C(=O)COc2ccc(Nc3nc(Nc4cccc(N5CCN(C)CC5)c4)ncc3F)nc21 [compound 134, 6-(5-fluoro-2-(3-(4-methylpiperazin-1-yl)phenylamino)pyrimidin-4-ylamino)-4-(pentan-3-yl)-2H-pyrido[3,2-b][1,4]oxazin-3(4H)-one] | < 0.5 µM | < 0.5 µM | < 10 µM | < 0.01 µM |
| Cc1cc(Nc2ncc(F)c(Nc3ccc4c(n3)N(Cc3ccccc3)C(=O)CO4)n2)ccc1N1CCN(C)CC1 [compound 118, 4-benzyl-6-(5-fluoro-2-(3-methyl-4-(4-methylpiperazin-1-yl)phenylamino)pyrimidin-4-ylamino)-2H-pyrido[3,2-b][1,4]oxazin-3(4H)-one] | ≥ 10 µM | 0.5 to 5 µM |  |  |
| CN1CCN(c2cccc(Nc3ncc(F)c(Nc4ccc5c(n4)NC(=O)CO5)n3)c2)CC1 [compound 157, 6-(5-fluoro-2-(3-(4-methylpiperazin-1-yl)phenylamino)pyrimidin-4-ylamino)-2H-pyrido[3,2-b][1,4]oxazin-3(4H)-one] | < 0.5 µM | < 0.5 µM | < 10 µM |  |
| CN1CCN(c2cccc(Nc3ncc(F)c(Nc4ccc5c(c4)NCCO5)n3)c2)CC1 [compound 20, N4-(3,4-dihydro-2H-benzo[b][1,4]oxazin-6-yl)-5-fluoro-N2-(3-(4-methylpiperazin-1-yl)phenyl)pyrimidine-2,4-diamine] | < 0.5 µM | 0.5 to 5 µM | < 10 µM |  |
| CCCN1C(=O)COc2ccc(Nc3nc(Nc4ccc(N5CC6CC5CN6C)c(C)c4)ncc3C)nc21 (stereo not drawn) [compound 107, 6-(5-methyl-2-(3-methyl-4-(5-methyl-2,5-diazabicyclo[2.2.1]heptan-2-yl)phenylamino)pyrimidin-4-ylamino)-4-propyl-2H-pyrido[3,2-b][1,4]oxazin-3(4H)-one] | < 0.5 µM | 0.5 to 5 µM | < 10 µM |  |
| Cc1ccc(Nc2ncc(F)c(Nc3ccc4c(n3)NCCO4)n2)cc1N1CC2CC1CN2C (stereo not drawn) [compound 36, N4-(3,4-dihydro-2H-pyrido[3,2-b][1,4]oxazin-6-yl)-5-fluoro-N2-(4-methyl-3-(5-methyl-2,5-diazabicyclo[2.2.1]heptan-2-yl)phenyl)pyrimidine-2,4-diamine] | < 0.5 µM | 0.5 to 5 µM | < 10 µM | < 0.01 µM |
| CN1CCN(c2cccc(Nc3nccc(Nc4ccc5c(n4)NCCO5)n3)c2)CC1 [compound 21, N4-(3,4-dihydro-2H-pyrido[3,2-b][1,4]oxazin-6-yl)-N2-(3-(4-methylpiperazin-1-yl)phenyl)pyrimidine-2,4-diamine] | < 0.5 µM | ≥ 10 µM | < 10 µM |  |
| Cc1cnc(Nc2cccc(N3CCN(C)CC3)c2)nc1Nc1ccc2c(n1)N(CC1CCC1)C(=O)CO2 [compound 130, 4-(cyclobutylmethyl)-6-(5-methyl-2-(3-(4-methylpiperazin-1-yl)phenylamino)pyrimidin-4-ylamino)-2H-pyrido[3,2-b][1,4]oxazin-3(4H)-one] | < 0.5 µM | 0.5 to 5 µM | < 10 µM | < 0.01 µM |
| Cc1cnc(Nc2ccc(N3CCN(C)CC3)cc2)nc1Nc1ccc2c(c1)N(CCCF)C(=O)CO2 [compound 188, 4-(3-fluoropropyl)-6-(5-methyl-2-(4-(4-methylpiperazin-1-yl)phenylamino)pyrimidin-4-ylamino)-2H-benzo[b][1,4]oxazin-3(4H)-one] | 0.5 to 5 µM | 0.5 to 5 µM | < 10 µM |  |
| CCCN1C(=O)COc2ccc(Nc3nc(Nc4ccc(N5CCN(C)CC5)c(C)c4)ncc3C)nc21 [compound 97, 6-(5-methyl-2-(3-methyl-4-(4-methylpiperazin-1-yl)phenylamino)pyrimidin-4-ylamino)-4-propyl-2H-pyrido[3,2-b][1,4]oxazin-3(4H)-one] | < 0.5 µM | 0.5 to 5 µM | < 10 µM |  |
| CCCN1C(=O)COc2ccc(Nc3nc(Nc4ccc(N5CCN(S(C)(=O)=O)CC5)c(C(F)(F)F)c4)ncc3F)nc21 [compound 137, 6-(5-fluoro-2-(4-(4-(methylsulfonyl)piperazin-1-yl)-3-(trifluoro-methyl)phenyl-amino)pyrimidin-4-ylamino)-4-propyl-2H-pyrido[3,2-b][1,4]oxazin-3(4H)-one] | ≥ 10 µM | ≥ 10 µM |  |  |
| CN1CCN(c2cccc(Nc3ncc(F)c(N(CC4CC4)c4ccc5c(n4)NCCO5)n3)c2)CC1 [compound 53, N4-(cyclopropylmethyl)-N4-(3,4-dihydro-2H-pyrido[3,2-b][1,4]oxazin-6-yl)-5-fluoro-N2-(3-(4-methylpiperazin-1-yl)phenyl)pyrimidine-2,4-diamine] | 0.5 to 5 µM | ≥ 10 µM | < 10 µM |  |
| CCOc1ccc(N2CCN(C)CC2)cc1Nc1ncc(F)c(Nc2ccc3c(n2)NC(=O)CO3)n1 [compound 49, 6-(2-(2-ethoxy-5-(4-methylpiperazin-1-yl)phenylamino)-5-fluoro-pyrimidin-4-ylamino)-2H-pyrido[3,2-b][1,4]oxazin-3(4H)-one] | < 0.5 µM | < 0.5 µM | < 10 µM | < 0.01 µM |
| CCN1C(=O)COc2ccc(Nc3nc(Nc4ccc(N5CCN(C)CC5)cc4)ncc3C)cc21 [compound 189, 4-ethyl-6-(5-methyl-2-(4-(4-methylpiperazin-1-yl)phenylamino)pyrimidin-4-ylamino)-2H-benzo[b][1,4]oxazin-3(4H)-one] | 0.5 to 5 µM | 0.5 to 5 µM | < 10 µM |  |
